Patent US10053477B2, “Spirocyclic aryl phosphorus oxide and aryl phosphorus sulfide” (QILU PHARMACEUTICAL CO., LTD., priority 2014, dated 2018)
Values belong to the compound of their own block, whether it stands above or below them.

Tests used:
ALK wild-type = biological target: T1, ALK wild-type (Homo sapiens, UniProt Q9UM73); assay: ALK wild-type enzymatic inhibition (HTRF); format: biochemical; settings: 30 μM ATP
T1 construct: purchased Carna Biosciences (Japan)
Method: (§1) Enzyme: ALK wild-type, ALK C1156Y and ALK L1196M supplied by Carna Biosciences (Japan), EGFR T790M/L858R supplied by Life technology (Madison, Wis.).
(§2) HTRF kit: supplied by Cis-Bio International, with Eu-marked TK1 antibody, XL665- and biotin-labelled TK1 polypeptide substrates.
10 μl wild-type ALK enzyme reaction mixture system: 0.5 nM wild-type ALK, 1 μM biotin-TK1 peptide, 30 μM ATP. Reaction buffer: 50 mM Hepes (pH7.5), 10 mM MgCl2, 0.01 mM NaV3VO4.
(§3) Incubation was carried out for 60 minutes at room temperature. Detection was by Envision.

EGFR T790M/L858R = biological target: T2, EGFR T790M/L858R (Homo sapiens, UniProt P00533, L858R/T790M); assay: EGFR T790M/L858R enzymatic inhibition (HTRF); format: biochemical; settings: 20 μM ATP
T2 construct: purchased Life technology (Madison, Wis.)
T2 sequence (P00533 25-1210 T790M/L858R): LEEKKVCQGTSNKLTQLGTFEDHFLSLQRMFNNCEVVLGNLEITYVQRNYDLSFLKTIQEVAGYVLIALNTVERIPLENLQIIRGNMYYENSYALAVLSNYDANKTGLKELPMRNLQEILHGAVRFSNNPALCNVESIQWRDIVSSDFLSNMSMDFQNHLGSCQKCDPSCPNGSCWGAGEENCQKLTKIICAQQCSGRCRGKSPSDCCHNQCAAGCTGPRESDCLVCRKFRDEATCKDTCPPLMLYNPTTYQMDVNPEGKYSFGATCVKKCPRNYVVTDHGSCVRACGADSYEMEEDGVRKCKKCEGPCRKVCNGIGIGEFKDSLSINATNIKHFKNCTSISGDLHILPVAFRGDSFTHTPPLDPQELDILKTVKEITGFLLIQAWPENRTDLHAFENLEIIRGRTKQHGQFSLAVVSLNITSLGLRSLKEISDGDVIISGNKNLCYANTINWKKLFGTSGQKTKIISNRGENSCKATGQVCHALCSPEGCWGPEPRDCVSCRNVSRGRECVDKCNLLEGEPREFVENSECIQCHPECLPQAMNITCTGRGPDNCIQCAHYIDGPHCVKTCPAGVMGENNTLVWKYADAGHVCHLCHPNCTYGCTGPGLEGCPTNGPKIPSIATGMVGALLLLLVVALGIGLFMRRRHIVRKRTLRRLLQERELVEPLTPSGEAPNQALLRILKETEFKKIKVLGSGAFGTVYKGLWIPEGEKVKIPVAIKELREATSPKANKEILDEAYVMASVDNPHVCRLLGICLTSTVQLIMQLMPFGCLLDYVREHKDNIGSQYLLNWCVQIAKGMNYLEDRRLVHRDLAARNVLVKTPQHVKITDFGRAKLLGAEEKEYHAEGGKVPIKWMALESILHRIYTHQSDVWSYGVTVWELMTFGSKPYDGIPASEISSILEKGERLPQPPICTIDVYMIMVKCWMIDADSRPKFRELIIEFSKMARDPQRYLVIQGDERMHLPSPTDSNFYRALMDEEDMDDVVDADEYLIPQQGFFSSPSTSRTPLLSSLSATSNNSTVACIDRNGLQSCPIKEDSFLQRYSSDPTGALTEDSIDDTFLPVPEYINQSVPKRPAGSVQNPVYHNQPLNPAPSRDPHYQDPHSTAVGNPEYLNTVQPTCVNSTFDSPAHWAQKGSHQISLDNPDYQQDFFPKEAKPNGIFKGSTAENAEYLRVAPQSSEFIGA
Method: as §1, §2
The compound to be tested is diluted at a gradient by 3 times thereby giving 11 gradients starting from […] to 0.017 nM for the final concentration.
10 μl EGFR T790M/L858R enzyme reaction mixture system: 0.08 nM EGFR T790M/L858R, 1 μM biotin-TK1 peptide, 20 μM ATP. Reaction buffer: 50 mM Hepes (pH7.5), 10 mM MgCl2, 0.01 mM NaV3VO4. The reaction plate was white Proxiplate 384-Plus plate (PerkinElmer). Reaction was reacted at room temperature for 60 minutes.
Detecting reaction: 10 μl testing reagent was added to the reaction plate, the final concentration of Antibody was 2 nM, XL665 was 62.5 nM. Incubation was carried out for 60 minutes at room temperature. Detection was by Envision.

ALK L1196M = biological target: T3, ALK L1196M (Homo sapiens, UniProt Q9UM73, L1196M); assay: ALK L1196M enzymatic inhibition (HTRF); format: biochemical; settings: 30 μM ATP
T3 construct: purchased Carna Biosciences (Japan)
T3 sequence (Q9UM73 19-1620 L1196M): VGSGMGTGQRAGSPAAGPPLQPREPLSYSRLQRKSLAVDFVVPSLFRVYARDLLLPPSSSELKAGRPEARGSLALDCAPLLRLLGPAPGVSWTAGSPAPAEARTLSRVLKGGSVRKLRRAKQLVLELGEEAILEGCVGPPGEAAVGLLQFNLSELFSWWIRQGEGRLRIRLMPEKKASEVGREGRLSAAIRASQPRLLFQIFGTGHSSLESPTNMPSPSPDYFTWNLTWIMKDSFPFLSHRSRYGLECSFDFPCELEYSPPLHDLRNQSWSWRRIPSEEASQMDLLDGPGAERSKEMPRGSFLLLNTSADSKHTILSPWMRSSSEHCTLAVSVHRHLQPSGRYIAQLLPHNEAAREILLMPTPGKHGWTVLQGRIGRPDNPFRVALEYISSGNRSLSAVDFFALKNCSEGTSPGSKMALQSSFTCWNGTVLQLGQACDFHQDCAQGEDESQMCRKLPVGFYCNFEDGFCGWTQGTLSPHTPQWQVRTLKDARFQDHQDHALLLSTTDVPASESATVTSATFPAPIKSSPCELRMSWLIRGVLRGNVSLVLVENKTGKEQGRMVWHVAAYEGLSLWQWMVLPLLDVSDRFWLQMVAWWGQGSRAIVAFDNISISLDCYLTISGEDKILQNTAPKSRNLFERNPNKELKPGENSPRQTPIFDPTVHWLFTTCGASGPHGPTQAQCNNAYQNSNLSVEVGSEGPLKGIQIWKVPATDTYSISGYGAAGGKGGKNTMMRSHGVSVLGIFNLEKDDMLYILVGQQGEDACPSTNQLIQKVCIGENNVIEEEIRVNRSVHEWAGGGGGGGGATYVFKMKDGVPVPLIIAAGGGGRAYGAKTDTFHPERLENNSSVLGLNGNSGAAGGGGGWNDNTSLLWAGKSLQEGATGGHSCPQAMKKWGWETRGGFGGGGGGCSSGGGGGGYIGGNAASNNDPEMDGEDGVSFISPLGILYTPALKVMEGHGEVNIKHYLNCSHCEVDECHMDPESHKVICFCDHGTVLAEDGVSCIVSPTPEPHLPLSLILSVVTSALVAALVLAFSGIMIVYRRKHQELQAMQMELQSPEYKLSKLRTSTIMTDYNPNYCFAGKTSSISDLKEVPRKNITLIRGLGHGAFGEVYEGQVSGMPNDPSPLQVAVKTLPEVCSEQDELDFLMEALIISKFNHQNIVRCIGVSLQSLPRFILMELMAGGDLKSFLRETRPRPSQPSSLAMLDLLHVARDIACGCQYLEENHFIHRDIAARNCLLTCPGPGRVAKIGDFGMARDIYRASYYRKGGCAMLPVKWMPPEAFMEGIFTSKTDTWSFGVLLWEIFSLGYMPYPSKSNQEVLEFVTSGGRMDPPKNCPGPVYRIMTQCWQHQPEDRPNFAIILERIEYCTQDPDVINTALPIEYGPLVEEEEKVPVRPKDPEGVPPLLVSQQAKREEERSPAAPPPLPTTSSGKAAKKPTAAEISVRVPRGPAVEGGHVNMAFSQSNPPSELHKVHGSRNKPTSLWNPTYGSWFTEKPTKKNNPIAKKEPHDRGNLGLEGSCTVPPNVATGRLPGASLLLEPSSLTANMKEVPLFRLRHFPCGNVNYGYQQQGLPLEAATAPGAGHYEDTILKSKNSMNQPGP
Method: as §1, §2
Reaction buffer: 50 mM Hepes (pH7.5), 10 mM MgCl2, 0.01 mM NaV3VO4.
as §3

ALK C1156Y = biological target: T4, ALK C1156Y (Homo sapiens, UniProt Q9UM73, C1156Y); assay: ALK C1156Y enzymatic inhibition (HTRF); format: biochemical; settings: 30 μM ATP
T4 construct: purchased Carna Biosciences (Japan)
T4 sequence (Q9UM73 19-1620 C1156Y): as the sequence (Q9UM73 19-1620 L1196M) above, with C1138Y, M1178L counted along it
Method: as §1, §2
Reaction buffer: 50 mM Hepes (pH7.5), 10 mM MgCl2, 0.01 mM NaV3VO4. […] Reaction was reacted at room temperature for 60 minutes.
as §3

[1] = system: LU-01-0015 xenotransplantation (PDX) from lung cancer patients; assay: In vivo efficacy, LU-01-0015 xenotransplantation (PDX) from lung cancer patients; parameters: species or system BALB/c nude mice; settings: for Tumor volume: 25 mg/kg orally everyday
Source text: BALB/c nude mice, female, 6 to 8 weeks, about 18 to 22 g bodyweight, was kept in a special environment without pathogens, and a single ventilated cage (5 mice per cage). Beddings and water in all the cages were disinfected before use. […] 80 mice were supplied by Shanghai BK Laboratory Animal Co., LTD for study. Each mouse was subcutaneously implanted tumor tissue (20-30 mm^3) at right flank for growth of tumor. When the average tumor volume reached about 250-300 mm^3, the assay started. Test compounds were delivered orally everyday, 25 mg/kg. Tumor size was measured with two-dimensional caliper every 3 days, size was recorded by mm^3, and calculated by the following formula: V=V=0.5a×b2, where a and b are respectively the long diameter and short diameter length of the tumor. The antitumor efficacy was determined by dividing the average increased tumor volume in compound-treated animal by the average increased tumor volume in untreated animal.

[2] = system: LU-01-0319 Crizotinib resistance model; assay: In vivo anti-tumor efficacy, Crizotinib resistant LU-01-0319 xenotransplantation (PDX) tumor; parameters: species or system BALB/c nude mice
Source text: LU-01-0319 xenotransplantation tumor models initially obtained from clinical sample through surgical resection were implanted into nude mice, which was defined as a batch of P0 (LU-01-0319-P0). The next batch was defined as P1 (LU-01-0319-P1) which was implanted tumors from P0. FP3 was regained from P2, the next batch was defined as FP4 which was implanted tumors from FP3. […] The continuous increasing tumors were defined as LU-01-0319 antitumor models. BALB/c nude mice, female, 6 to 8 weeks, about 18 to 22 g bodyweight, 75 mice were used for study, supplied by Shanghai BK Laboratory Animal Co., LTD. Tumour biopsies (about 30 mm^3) of LU-01-0319R FP6 were implanted subcutaneously on right side of each mouse for growth of tumor. […] Dose of Crizotinib was appropriately varied depending on the tumor size. When average tumor volume reached about ˜500 mm^3, the assay began. Once a day the compounds to be tested were orally administered. Tumor size were measured twice a week with a caliper at two dimensions, and calculated with the following formula: V=0.5a×b2, where a and b are respectively long diameter and short diameter of the tumor. The antitumor efficacy was determined by dividing the average increased tumor volume in compound-treated animal by the average increased tumor volume in untreated animal.

[3] = system: LU-01-0319 xenotransplantation (PDX) from lung cancer patients; assay: In vivo efficacy, LU-01-0319 xenotransplantation (PDX) from lung cancer patients; parameters: species or system BALB/c nude mice; settings: 10 mg/kg orally everyday
Source text: BALB/c nude mice, female, 6 to 8 weeks, about 18 to 22 g bodyweight, was kept in a special environment without pathogens, and a single ventilated cage (5 mice per cage). Beddings and water in all the cages were disinfected before use. All the animal had free access to standard authorized commercially available lab diet. 80 mice were supplied by Shanghai BK Laboratory Animal Co., LTD for study. Each mouse was subcutaneously implanted tumor tissue (20-30 mm^3) at right flank for growth of tumor. When the average tumor volume reached about 250-300 mm^3, the assay started. Test compounds were delivered orally everyday, 10 mg/kg. Tumor size was measured with two-dimensional caliper every 3 days, size was recorded by mm^3, and calculated by the following formula: V=V=0.5a×b2, where a and b are respectively the long diameter and short diameter length of the tumor. The antitumor efficacy was determined by dividing the average increased tumor volume in compound-treated animal by the average increased tumor volume in untreated animal.

T1 sequence (Q9UM73 19-1620): as the sequence (Q9UM73 19-1620 L1196M) above, with M1178L counted along it

IC50 (ALK wild-type): 1 to 100 nM
IC50 (EGFR T790M/L858R): 1 to 100 nM
IC50 (ALK L1196M): 1 to 100 nM
IC50 (ALK C1156Y): 1 to 100 nM
Compound: CN1CCC2(CCC(c3ccc(Nc4ncc(Cl)c(Nc5ccccc5P(C)(C)=O)n4)c(OC(F)F)c3)CC2)CC1 [Compound 28, (2-((5-Chloro-2-((2-(difluoromethoxy)-4-(3-methyl-3-azaspiro[5.5]undecan-9-yl)phenyl)amino)pyrimidin-4-yl)amino)phenyl)dimethyl phosphine oxide]

IC50 (ALK wild-type): 1 to 100 nM
IC50 (EGFR T790M/L858R): 1 to 100 nM
IC50 (ALK L1196M): 1 to 100 nM
IC50 (ALK C1156Y): 1 to 100 nM
Compound: COc1cc(C2CC3(CCN(C)CC3)C2)c(F)cc1Nc1ncc(Cl)c(Nc2ccccc2P(C)(C)=O)n1 [Compound 29, (2-((5-Chloro-2-((5-fluoro-2-methoxy-4-(7-methyl-7-azaspiro[3.5]nonan-2-yl)phenyl)amino)pyrimidin-4-yl)amino)phenyl)dimethyl phosphine oxide]

IC50 (ALK wild-type): 1 to 100 nM
IC50 (EGFR T790M/L858R): 1 to 100 nM
IC50 (ALK L1196M): 1 to 100 nM
IC50 (ALK C1156Y): 1 to 100 nM
Compound: COc1cc(N2CCC3(CCN(C)CC3)CC2)ccc1Nc1nc(Nc2ccccc2P(C)(C)=O)c2cc[nH]c2n1 [Compound 17, (2-((2-(amino)-7H-pyrrolo[2,3-D](2-methoxy-4-(9-methyl-3,9-diazaspiro[5.5]undecan-3-yl)phenyl)pyrimidin-4-yl)amino)phenyl)dimethyl phosphine oxide]

IC50 (ALK wild-type): 101 to 1000 nM
IC50 (EGFR T790M/L858R): 101 to 1000 nM
IC50 (ALK L1196M): 101 to 1000 nM
IC50 (ALK C1156Y): 101 to 1000 nM
Compound: COc1ccc(C2CC3(CC(=O)N(C)C3)C2)cc1Nc1ncc(Cl)c(Nc2ccccc2P(C)(C)=O)n1 (centres unmarked) [Compound 2, 2-(3-((5-Chloro-4-((2-(dimethylphosphoryl)phenyl)amino)pyrimidin-2-yl)amino)-4-methoxyphen-yl)-6-methyl-6-azaspiro[3.4]octan-7-one]

IC50 (ALK wild-type): 1 to 100 nM
IC50 (EGFR T790M/L858R): 1 to 100 nM
IC50 (ALK L1196M): 1 to 100 nM
IC50 (ALK C1156Y): 1 to 100 nM
Compound: COc1cc(N2CCC3(CCC(N(C)C)CC3)CC2)ccc1Nc1ncc(Cl)c(Nc2ccccc2P(C)(C)=O)n1 [Compound 14, (2-((5-Chloro-2-((4-(9-(dimethylamino)-3-azaspiro[5.5]undecan-3-yl)-2-methoxyphenyl)amino)pyrimidin-4-yl)amino)phenyl)dimethyl phosphine oxide]

IC50 (ALK wild-type): 1 to 100 nM
IC50 (EGFR T790M/L858R): 101 to 1000 nM
IC50 (ALK L1196M): 101 to 1000 nM
IC50 (ALK C1156Y): 101 to 1000 nM
Compound: COc1ccc(C2CC3(CCN(C)C3)C2)cc1Nc1ncc(Cl)c(Nc2ccccc2P(C)(C)=O)n1 (centres unmarked) [Compound 1, (2-((5-chloro-2-((2-methoxy-5-(6-methyl-6-azaspiro[3.4]octan-2-yl)phenyl)amino)pyrimidin-4-yl)amino)phenyl)dimethylphosphine oxide]

IC50 (ALK wild-type): 1 to 100 nM
IC50 (EGFR T790M/L858R): 1 to 100 nM
IC50 (ALK L1196M): 1 to 100 nM
IC50 (ALK C1156Y): 1 to 100 nM
Compound: COc1cc(N2CCC3(CC2)CC(N(C)C)C3)ccc1Nc1ncc(Cl)c(Nc2ccccc2P(C)(C)=O)n1 [Compound 13, (2-((5-Chloro-2-((4-(2-(dimethylamino)-7-azaspiro[3.5]nonan-7-yl)-2-methoxyphenyl)amino)pyrimidin-4-yl)amino)phenyl)dimethyl phosphine oxide]

IC50 (ALK wild-type): 1 to 100 nM
IC50 (EGFR T790M/L858R): 1 to 100 nM
IC50 (ALK L1196M): 1 to 100 nM
IC50 (ALK C1156Y): 1 to 100 nM
Compound: COc1cc(N2CCC3(CCN(C)CC3)CC2)c(Br)cc1Nc1ncc(Cl)c(Nc2ccccc2P(C)(C)=O)n1 [Compound 21, (2-((2-((5-Bromo-2-methoxy-4-(9-methyl-3,9-diazaspiro[5.5]undecan-3-yl)phenyl)amino)-5-chloropyrimidin-4-yl)amino)phenyl)dimethyl phosphine oxide]

IC50 (ALK wild-type): > 1000 nM
IC50 (EGFR T790M/L858R): > 1000 nM
IC50 (ALK L1196M): 101 to 1000 nM
IC50 (ALK C1156Y): > 1000 nM
Compound: COc1cc(N2CCC3(CCN(C)CC3)CC2)ccc1Nc1ncc(C(F)(F)F)c(Nc2ccccc2P(C)(C)=O)n1 [Compound 15, (2-((2-((2-Methoxy-4-(9-methyl-3,9-diazaspiro[5.5]undecan-3-yl)phenyl)amino)-5-(trifluoromethyl)pyrimidin-4-yl)amino)phenyl)dimethyl phosphine oxide]

Compound: COc1cc(N2CCC(N3CCN(C)CC3)CC2)ccc1Nc1ncc(Cl)c(Nc2ccccc2P(C)(C)=O)n1 [AP26113, reference compound]
Tumor volume ([1]; 3 days): 207 mm^3
Tumor volume ([1]; 6 days): 174 mm^3
Tumor volume ([1]; 9 days): 162 mm^3
Tumor volume ([1]; 12 days): 142 mm^3
Tumor volume ([1]; 16 days): 119 mm^3
Tumor volume ([1]; 19 days): 122 mm^3
Tumor volume ([1]; 23 days): 119 mm^3
tumor volume was reduced to (from 277 mm^3) ([1]; after 16 days, 25 mg/kg): 119 mm^3
Tumor volume ([2]; 0 day, dosage 3 mg/Kg orally once a day): 501 mm^3
Tumor volume ([2]; 0 day, dosage 10 mg/Kg orally once a day): 502 mm^3
Tumor volume ([2]; 3 days, dosage 3 mg/Kg orally once a day): 656 mm^3
Tumor volume ([2]; 3 days, dosage 10 mg/Kg orally once a day): 646 mm^3
Tumor volume ([2]; 7 days, dosage 3 mg/Kg orally once a day): 690 mm^3
Tumor volume ([2]; 7 days, dosage 10 mg/Kg orally once a day): 604 mm^3
Tumor volume ([2]; 10 days, dosage 3 mg/Kg orally once a day): 898 mm^3
Tumor volume ([2]; 10 days, dosage 10 mg/Kg orally once a day): 593 mm^3
Tumor volume ([2]; 13 days, dosage 3 mg/Kg orally once a day): 1096 mm^3
Tumor volume ([2]; 13 days, dosage 10 mg/Kg orally once a day): 504 mm^3
Tumor volume ([2]; 17 days, dosage 3 mg/Kg orally once a day): 1415 mm^3
Tumor volume ([2]; 17 days, dosage 10 mg/Kg orally once a day): 568 mm^3
Tumor volume ([2]; 19 days, dosage 3 mg/Kg orally once a day): 1499 mm^3
Tumor volume ([2]; 19 days, dosage 10 mg/Kg orally once a day): 508 mm^3
Tumor volume ([3]; 0 days): 371 mm^3
Tumor volume ([3]; 2 days): 437 mm^3
Tumor volume ([3]; 6 days): 448 mm^3
Tumor volume ([3]; 9 days): 485 mm^3
Tumor volume ([3]; 13 days): 512 mm^3
Tumor volume ([3]; 16 days): 492 mm^3
Tumor volume ([3]; 20 days): 457 mm^3
Tumor volume ([3]; 23 days): 391 mm^3

Compound: Cc1cc(Nc2ncc(Cl)c(Nc3ccccc3S(=O)(=O)C(C)C)n2)c(OC(C)C)cc1C1CCNCC1 [LDK378]
Tumor volume ([3]; 0 days): 373 mm^3
Tumor volume ([3]; 2 days): 397 mm^3
Tumor volume ([3]; 6 days): 366 mm^3
Tumor volume ([3]; 9 days): 350 mm^3
Tumor volume ([3]; 13 days): 425 mm^3
Tumor volume ([3]; 16 days): 369 mm^3
Tumor volume ([3]; 20 days): 329 mm^3
Tumor volume ([3]; 23 days): 268 mm^3
